What follows are molecules tested against T1, SCD-1 (Homo sapiens, UniProt O00767) (assay: Stearoyl-CoA desaturase assay (HepG2 cell P2 pellet)). Conditions: Table 1, compounds of formula (Ia); protein from HepG2 cell P2 pellet, 20 μM stearoyl-CoA, 15 min at 25° C.; read-out: Ave IC50.
T1 construct: 50 μg of protein from a HepG2 cell P2 pellet; endogenous in cells; host or cells: HepG2 cells (P2 pellet)
T1 sequence (O00767 1-359): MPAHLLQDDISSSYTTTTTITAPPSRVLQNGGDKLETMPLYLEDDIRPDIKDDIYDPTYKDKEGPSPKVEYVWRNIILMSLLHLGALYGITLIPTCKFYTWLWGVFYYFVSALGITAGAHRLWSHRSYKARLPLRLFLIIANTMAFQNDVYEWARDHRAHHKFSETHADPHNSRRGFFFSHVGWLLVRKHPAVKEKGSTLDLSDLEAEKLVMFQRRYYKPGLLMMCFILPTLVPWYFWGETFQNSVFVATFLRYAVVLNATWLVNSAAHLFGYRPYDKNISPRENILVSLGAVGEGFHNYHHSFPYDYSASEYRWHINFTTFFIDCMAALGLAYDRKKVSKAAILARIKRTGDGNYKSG
Assay type: biochemical

Row | Structure (SMILES) | IC50 [nM]
1 | CC(=O)NCC(=O)N1CCC2(CC1)CCN(Cc1ccccc1Cl)c1ccccc1O2 [Compound 28] | 500 to 10000
2 | CCc1ccc(CN2CCC3(CCN(C(=O)CNC(C)=O)CC3)Oc3c(F)cccc32)cc1 [Compound 47] | 500 to 10000
3 | CCc1ccc(CN2CCC3(CCN(C(=O)CNC(=O)C4CC4)CC3)Oc3ccccc32)cc1 [Compound 5] | 500 to 10000
4 | COc1ccccc1CN1CCC2(CCN(C(=O)CNC(C)=O)CC2)Oc2ccccc21 [Compound 24] | 500 to 10000
5 | CC(=O)NCC(=O)N1CCC2(CC1)CCN(Cc1ccc(Cl)s1)c1ccccc1O2 [Compound 33] | 500 to 10000
6 | CC(=O)NCC(=O)N1CCC2(CC1)CCN(Cc1ccc(C#N)cc1)c1ccccc1O2 [Compound 23] | > 10000
7 | CCc1ccc(CN2CCC3(CCN(C(=O)CNC(=O)CCN(C)C)CC3)Oc3ccccc32)cc1 [Compound 9] | > 10000
8 | CC(=O)NCC(=O)N1CCC2(CC1)CCN(Cc1cccc(Cl)c1)c1ccccc1O2 [Compound 26] | 500 to 10000
9 | CCc1ccc(CN2CCC3(CCN(C(=O)[C@@H](C)NC(C)=O)CC3)Oc3ccccc32)cc1 [Compound 4] | 500 to 10000
10 | CC(=O)NCC(=O)N1CCC2(CC1)CCN(Cc1ccc(Br)s1)c1ccccc1O2 [Compound 34] | 500 to 10000
11 | COc1ccc(CN2CCC3(CCN(C(=O)CNC(C)=O)CC3)Oc3ccccc32)cc1F [Compound 31] | 500 to 10000
12 | CC(=O)NCC(=O)N1CCC2(CC1)CCN(Cc1ccc(OC(F)(F)F)cc1)c1ccccc1O2 [Compound 22] | 500 to 10000

Same assay, conditions: Table 2, compounds of formula (Ib); protein from HepG2 cell P2 pellet, 20 μM stearoyl-CoA, 15 min at 25° C.; read-out: Ave IC50

Row | Structure (SMILES) | IC50 [nM]
13 | CC(C)(C)c1ccc(CN2CCC3(CCN(c4ncc(C(=O)NCC5CCCO5)s4)CC3)Oc3c(F)cccc32)cc1 (stereo not shown) [Compound 79] | 50 to 499
14 | CC(C)CNC(=O)c1cnc(N2CCC3(CC2)CCN(Cc2ccc(C(C)(C)C)cc2)c2cccc(F)c2O3)s1 [Compound 84] | 500 to 10000
15 | O=C(NCCC1CC1)c1cnc(N2CCC3(CC2)CCN(Cc2cccc(C(F)(F)F)c2)c2ccccc2O3)s1 [Compound 51] | 500 to 10000
16 | CC(C)(C)c1ccc(CN2CCC3(CCN(c4ncc(C(=O)NCC5CCCO5)s4)CC3)Oc3c(F)cccc32)cc1 (stereo not shown) [Compound 89] | 50 to 499
17 | CCCNC(=O)c1cnc(N2CCC3(CC2)CCN(Cc2ccc(C(C)(C)C)cc2)c2cccc(F)c2O3)s1 [Compound 94] | 50 to 499
18 | COC(=O)CCNC(=O)c1cnc(N2CCC3(CC2)CCN(Cc2ccc(C(C)(C)C)cc2)c2ccccc2O3)s1 [Compound 69] | 0.5 to 49
19 | CCN(C)C(=O)c1cnc(N2CCC3(CC2)CCN(Cc2ccc(C(C)(C)C)cc2)c2ccccc2O3)s1 [Compound 66] | 50 to 499
20 | Cn1cnc(-c2cnc(N3CCC4(CC3)CCN(Cc3ccc(C(C)(C)C)cc3)c3ccccc3O4)s2)n1 [Compound 73] | 0.5 to 49
21 | CC(C)(C)OC(=O)CCNC(=O)c1cnc(N2CCC3(CC2)CCN(Cc2cccc(C(F)(F)F)c2)c2ccccc2O3)s1 [Compound 60] | 50 to 499
22 | NC(=O)c1cnc(N2CCC3(CC2)CCN(Cc2cccc(C(F)(F)F)c2)c2ccccc2O3)s1 [Compound 52] | 0.5 to 49
23 | Cc1nn(C)c(C)c1CNC(=O)c1cnc(N2CCC3(CC2)CCN(Cc2ccc(C(C)(C)C)cc2)c2cccc(F)c2O3)s1 [Compound 90] | 500 to 10000
24 | CC(C)(C)c1ccc(CN2CCC3(CCN(c4ncc(C(=O)NCCC(N)=O)s4)CC3)Oc3c(F)cccc32)cc1 [Compound 91] | 50 to 499
25 | CC(C)(C)c1ccc(CN2CCC3(CCN(c4ncc(C(=O)N5CCCC5)s4)CC3)Oc3ccccc32)cc1 [Compound 72] | 500 to 10000

Results, then the molecule that gave them:

Row | IC50 [nM] | Structure (SMILES)
26 | 500 to 10000 | CC(C)(C)c1ccc(CN2CCC3(CCN(c4ncc(C(=O)NCCN5CCCC5)s4)CC3)Oc3c(F)cccc32)cc1 [Compound 101]
27 | > 10000 | CN(C)CCNC(=O)c1cnc(N2CCC3(CC2)CCN(Cc2ccc(C(C)(C)C)cc2)c2cccc(F)c2O3)s1 [Compound 105]
28 | > 10000 | CC(C)(C)c1ccc(CN2CCC3(CCN(c4ncc(C(=O)NCCc5c[nH]cn5)s4)CC3)Oc3c(F)cccc32)cc1 [Compound 111]
29 | 500 to 10000 | CC(C)(C)OC(=O)CCNC(=O)c1cnc(N2CCC3(CC2)CCN(Cc2ccc(C(C)(C)C)cc2)c2ccccc2O3)s1 [Compound 125]
30 | 0.5 to 49 | O=C(O)CCNC(=O)c1cnc(N2CCC3(CC2)CCN(Cc2cccc(C(F)(F)F)c2)c2ccccc2O3)s1 [Compound 129]
31 | 0.5 to 49 | CC(C)(C)OC(=O)CCNC(=O)c1cnc(N2CCC3(CC2)CCN(Cc2ccc(C(C)(C)C)cc2)c2cccc(F)c2O3)s1 [Compound 116]
32 | 0.5 to 49 | O=C(NCCCO)c1cnc(N2CCC3(CC2)CCN(Cc2cccc(C(F)(F)F)c2)c2cccc(F)c2O3)s1 [Compound 131]
33 | 0.5 to 49 | O=C(O)CNC(=O)c1cnc(N2CCC3(CC2)CCN(Cc2cccc(C(F)(F)F)c2)c2ccccc2O3)s1 [Compound 136]
34 | 50 to 499 | COCCCNC(=O)c1cnc(N2CCC3(CC2)CCN(Cc2ccc(C(C)(C)C)cc2)c2cccc(F)c2O3)s1 [Compound 108]
35 | > 10000 | Cn1cncc1CNC(=O)c1cnc(N2CCC3(CC2)CCN(Cc2ccc(C(C)(C)C)cc2)c2cccc(F)c2O3)s1 [Compound 121]
36 | 500 to 10000 | CC(C)(C)c1ccc(CN2CCC3(CCN(c4ncc(-c5ccccc5)s4)CC3)Oc3ccccc32)cc1 [Compound 138]
37 | > 10000 | CC(C)(C)c1ccc(CN2CCC3(CCN(c4ncc(C(=O)NCc5ccccn5)s4)CC3)Oc3c(F)cccc32)cc1 [Compound 106]
38 | 0.5 to 49 | CC(C)(C)c1ccc(CN2CCC3(CCN(c4ncc(C(=O)NCCC(=O)O)s4)CC3)Oc3c(F)cccc32)cc1 [Compound 123]
39 | 500 to 10000 | CC(C)(C)c1ccc(CN2CCC3(CCN(c4ncc(-c5ccc(C#N)cc5)s4)CC3)Oc3ccccc32)cc1 [Compound 137]
40 | 0.5 to 49 | O=C(O)CCNC(=O)c1cnc(N2CCC3(CC2)CCN(Cc2cccc(C(F)(F)F)c2)c2cccc(F)c2O3)s1 [Compound 133]
41 | 0.5 to 49 | N#Cc1cnc(N2CCC3(CC2)CCN(Cc2cccc(C(F)(F)F)c2)c2ccccc2O3)s1 [Compound 127]

Same assay, conditions: Table 3, compounds of formula (Ic); protein from HepG2 cell P2 pellet, 20 μM stearoyl-CoA, 15 min at 25° C.; read-out: Ave IC50

Row | Structure (SMILES) | IC50 [nM]
42 | CC(C)(C)c1ccc(CN2CCC3(CCN(c4ccc(C(=O)O)cn4)CC3)Oc3c(F)cccc32)cc1 [Compound 145] | 50 to 499
43 | CC(C)CNC(=O)c1ccc(N2CCC3(CC2)CCN(Cc2cccc(C(F)(F)F)c2)c2ccccc2O3)nn1 [Compound 158] | 50 to 499
44 | CC(C)(C)c1ccc(CN2CCC3(CCN(c4ccc(C(=O)NCCC5CC5)nn4)CC3)Oc3c(F)cccc32)cc1 [Compound 150] | 50 to 499
45 | NC(=O)c1ccc(N2CCC3(CC2)CCN(Cc2cccc(C(F)(F)F)c2)c2ccccc2O3)nn1 [Compound 164] | 0.5 to 49
46 | CCNC(=O)c1ccc(N2CCC3(CC2)CCN(Cc2cccc(C(F)(F)F)c2)c2ccccc2O3)nn1 [Compound 167] | 50 to 499
47 | O=C(NCCc1ccncc1)c1ccc(N2CCC3(CC2)CCN(Cc2cccc(C(F)(F)F)c2)c2ccccc2O3)nn1 [Compound 165] | 0.5 to 49
48 | COC(=O)c1ccc(N2CCC3(CC2)CCN(Cc2cccc(C(F)(F)F)c2)c2ccccc2O3)nn1 [Compound 170, methyl 6-(5-(3-(trifluoromethyl)benzyl)-4,5-dihydro-3H-spiro-[benzo[b][1,4]oxazepine-2,4′-piperidine]-1′-yl)pyridazine-3-carboxylate] | 0.5 to 49
49 | CC(C)CCNC(=O)c1ccc(N2CCC3(CC2)CCN(Cc2cccc(C(F)(F)F)c2)c2ccccc2O3)nn1 [Compound 160] | 50 to 499
50 | O=C(NCCC1CC1)c1ccc(N2CCC3(CC2)CCN(Cc2cccc(C(F)(F)F)c2)c2ccccc2O3)nc1 [Compound 169] | 0.5 to 49
51 | O=C(NCCc1cccnc1)c1ccc(N2CCC3(CC2)CCN(Cc2cccc(C(F)(F)F)c2)c2ccccc2O3)nn1 [Compound 163] | 0.5 to 49
52 | CC(C)c1ccc(CN2CCC3(CCN(c4ccc(C(=O)NCCC5CC5)nn4)CC3)Oc3ccccc32)cc1 [Compound 181] | 0.5 to 49
